This assay has as its system human osteoclasts. As to the kind of experiment: Osteoclast differentiation assay on plastic (TRAP). Format: cell-based. As to conditions: osteoclasts grown on plastic, 7 days. Here is the method: To assess osteoclast differentiation, 7.5 × 10^4 cells from PBMCs, cells preincubated with M-CSF, were cultured in 96-well plates. After 3 days, medium was replaced with differentiation medium (αMEM; M8042 sigma, 10% FBS, 5% Penstrep and L-Glu, BI) supplemented with 25 ng/mL M-CSF and 25 ng/mL RANKL (R&D systems, 390-TN) and different inhibitors: GD20 (1 or 5 μM), ODN (1 or 5 μM), or vehicle. The differentiation medium was changed after 2 and 5 days. Cells were fixed on the 7th day with 4% PFA for 10 min at room temperature, they were washed three times with PBS, and then stained using a TRAP staining kit (Sigma-Aldrich, 387A-1KT) according to the manufacturer’s protocol with additional staining of the nuclei with DAPI. Osteoclast parameters were obtained by analysis of three wells from each- treatment. […] The total osteoclast surface area was determined using ImageJ software by manually tracing individual osteoclasts perimeters.
Figure S7. Identification of fluorescent band identity. […] G els were scanned for fluorescence and then underwent immunoblotting with different cathepsin -specific antibodies . […]
Fluorescence Immunoblot s.ch. = single chain, […]
Quantification of the total number of osteoclasts, and c) osteoclast-cell area in each treatment […]
Figure S9. […] Cathepsin activity was detected by labeling intact osteoclast with GB123, a pan-cathepsin activity-based probe. […]

As for `CC(C)C[C@H](N[C@@H](c1ccc(-c2ccc(S(C)(=O)=O)cc2)cc1)C(F)(F)F)C(=O)NCC(=O)COC(=O)[C@@H]1CCCN1C(=O)[C@H](CC(C)C)NC(=O)OCC1c2ccccc2-c2ccccc21` [GD20], the total osteoclast area result is listed as “slightly decreased”.

Values taken from PMC11938014, “Development and Application of Small Molecule–Peptide Conjugates as Cathepsin K-Specific Covalent Irreversible Inhibitors in Human Osteoclast and Lung Cancer” (JACS Au, 2025).
